Experimental data as given in patent US20140128352A1, “COMPOUNDS AND METHODS FOR MODULATING MITOCHONDRIAL METABOLISM AND REACTIVE OXYGEN SPECIES PRODUCTION” (Buck Institute for Research on Aging, priority 2012, published 2014).
Entries after “also recorded” stand apart in the source; their conditions may differ. Read-outs that look alike come from different tables or passages of the source.

Tests used:
[1] = molecular target: T1, succinate dehydrogenase/complex II (SDH) (Rattus norvegicus, UniProt P21913+Q641Z9+Q6PCT8+Q920L2); experiment: High-throughput screen: ROS production from succinate dehydrogenase/complex II (SDH); type: biochemical; conditions: percent change in ROS from DMSO controls; for inhibition at 2.5 µM: Table 7
T1 construct: freshly isolated muscle mitochondria were assayed; from tissue; host or cells: rat skeletal muscle mitochondria (Wistar, Harlan Laboratories)

[2] = molecular target: T2, glycerol-3-phosphate dehydrogenase (GPDH) (Rattus norvegicus, UniProt P35571); experiment: High-throughput screen: ROS production from glycerol-3-phosphate dehydrogenase (GPDH); type: biochemical; parameters: inhibition: dose or concentration left out as unconfirmed
T2 construct: The activity of GPDH in intact mitochondria (0.3 mg/mL) was measured; from tissue; host or cells: rat skeletal muscle mitochondria (Wistar, Harlan Laboratories)
T2 sequence (P35571 43-727): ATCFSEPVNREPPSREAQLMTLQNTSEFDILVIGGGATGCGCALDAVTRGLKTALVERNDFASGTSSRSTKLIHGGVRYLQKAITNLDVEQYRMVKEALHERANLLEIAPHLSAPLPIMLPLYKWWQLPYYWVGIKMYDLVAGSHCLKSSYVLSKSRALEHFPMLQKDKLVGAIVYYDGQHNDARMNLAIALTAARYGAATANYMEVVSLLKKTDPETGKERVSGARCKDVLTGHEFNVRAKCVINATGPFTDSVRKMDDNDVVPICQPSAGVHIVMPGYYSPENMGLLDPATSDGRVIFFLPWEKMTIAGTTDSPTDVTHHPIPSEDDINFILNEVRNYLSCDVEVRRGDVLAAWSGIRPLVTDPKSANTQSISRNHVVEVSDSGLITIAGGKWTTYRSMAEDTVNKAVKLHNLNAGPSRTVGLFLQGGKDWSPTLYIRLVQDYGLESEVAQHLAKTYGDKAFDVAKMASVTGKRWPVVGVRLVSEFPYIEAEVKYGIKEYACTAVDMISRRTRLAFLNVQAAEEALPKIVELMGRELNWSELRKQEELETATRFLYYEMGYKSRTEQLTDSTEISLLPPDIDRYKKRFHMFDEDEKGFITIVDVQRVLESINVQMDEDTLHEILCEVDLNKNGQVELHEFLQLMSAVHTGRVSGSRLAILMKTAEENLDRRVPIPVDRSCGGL

[3] = molecular target: T3, outer ubiquinone binding site of complex III (IIIQO) (Rattus norvegicus, UniProt P00159+P20788); experiment: High-throughput screen: ROS production from outer ubiquinone binding site of complex III (IIIQO); type: biochemical; conditions: for IIIQO: Table 8
T3 construct: freshly isolated muscle mitochondria were assayed; from tissue; host or cells: rat skeletal muscle mitochondria (Wistar, Harlan Laboratories)
Method: (§3) Skeletal muscle mitochondria were isolated from 5-8 week old female Wistar rats (Harlan Laboratories). Minced muscle was homogenized in buffer containing bacterial protease Type VIII prior to differential centrifugation to separate mitochondria from other tissue components. Unless otherwise stated, freshly isolated muscle mitochondria were assayed in buffer containing 120 mM KCl, 5 mM HEPES, 1 mM EGTA, 0.3% (w/v) bovine serum albumin. Where indicated, CaCl2 was added to yield a final free concentration of 250 nM calcium at pH 7.0 at 37° C.
(§4) Compounds (10 mM in DMSO) were randomly selected from a library of 24,000 compounds obtained from ChemBridge and curated by the lab of Robert Hughes at the Buck Institute. Master screening plates were prepared using a Biomek FX liquid handling workstation (Beckman) to transfer 1 μL of each compound into individual wells on 96-well storage plates (80 compounds per plate). Master plates were sealed with foil and stored at −80° C. Just prior to use, plates were brought to room temperature and diluted 300-fold with standard buffer (13.3X=33.3 μM). To monitor the performance of each assay throughout screening and to provide intra-plate normalization reference points, DMSO negative controls and known mitochondrial inhibitor positive controls were included on each Master compound plate.
(§5) Total amounts of superoxide and H2O2 production were determined fluorometrically as H2O2, without distinguishing between them, in the presence of exogenous superoxide dismutase (25 units/mL final), horseradish peroxidase (1 unit/mL final), and Amplex UltraRed (25 μM final) as described (Affourtit, C. et al. (2012) Measurement of proton leak and electron leak in isolated mitochondria. Methods Mol. Biol. 810: 165-82). Just prior to use, a bulk 3.3X solution was made in standard buffer and distributed into a 2 mL deep well 96-well transfer plate.
To assess the effects of a compound on ROS production from the outer ubiquinone binding site of complex III (IIIQO), Start Solution containing 5 mM succinate, 4 μM rotenone and 2.5 μM antimycin A was distributed into standard 96-well transfer plates. A Biomek FX workstation was programmed to dispense solutions into black 96-well assay plates. Solutions were dispensed to all assay plates in the following order: ROS Detection solution described in Example 3, Mitochondria solution described in Example 1 to a final concentration of 0.1 mg/ml, and Compound dilutions described in Example 2. Duplicate assay plates were made and each was initiated by the addition of 3.3X Start solution containing 5 mM succinate, 4 μM rotenone and 2.5 μM antimycin A. Plates were incubated in the dark at room temperature for 30-40 minutes before acquiring endpoint fluorescence using a Victor 3V plate reader (Perkin Elmer) equipped with 550/590 nm excitation/emission filters.
The fluorescence values in each well were scaled as the percent change from the intra-plate DMSO controls with the appropriate inhibitor positive controls defined as −100%. Following initial scaling, intra-plate normalized values were subjected to Tukey's two-way median polish to remove row and column dependent positional effects (Malo et al., 2006).

[4] = system: site IQ; experiment: Retest of IQ ROS production (expanded microplate panel / cuvette); type: biochemical, rat; conditions: retest; subsaturating (0.5 mM) succinate
Method: (§1) Compounds identified as site-selective hits as well as structural analogs were re-sourced from ChemBridge and dissolved in DMSO as 80 mM stocks. Master Titration Plates were prepared manually by serially diluting 80 mM compound stocks between 0.08 and 80 mM on 96-well microplates. Four compounds were titrated in duplicate on each plate. Additional DMSO controls were interspersed across these plates to serve as local normalization controls during analysis since two-way median polishing was not appropriate. Just prior to use, compounds were diluted 100-fold with standard buffer (10X). The same known inhibitor positive controls were included on each plate as during high-throughput screening.
(§2) The five core ROS assays and single ΔΨm assay were carried out as in the initial high-throughput screen. In addition, several assays were included to help validate the specificity of the compounds for a given site of production. All compounds were titrated against separate assays targeting IQ ROS and IIIQo ROS using subsaturating (0.5 mM final) succinate. […] Specifically, ΔΨm was monitored separately with 5 mM succinate (in the presence of 4 μM rotenone) in addition to glutamate and malate as before. The use of different substrates was designed to reveal compounds that disrupt mitochondrial function in a substrate specific manner.
Most frequently, these changes involved the use of different substrates to supply electrons from an alternative entry point in the chain. If a site of ROS production is being targeted selectively by a compound, then in many cases the supply of electrons should not influence the effectiveness of this compound at suppressing ROS production. […] Alternative conditions are listed below: • 1) IQ ROS: 5 mM succinate with 1 mM glutamate • 2) IF ROS: 5 mM malate only as substrate (in the presence of 4 μM rotenone) • 3) IIIQo ROS: 5 mM succinate (in the presence of 3 mM malonate, 4 uM rotenone, and 2.5 μM antimycin A) • 4) IIIQo ROS: 25 mM glycerol phosphate (in the presence of 1 mM malonate, 4 μM rotenone, and 2.5 μM antimycin A) • 5) SDH: 0.5 mM succinate (in the presence of 4 uM rotenone, 2.5 uM antimycin A, and 2 μM myxothiazol) • 6) GPDH: Vary the concentration of glycerol phosphate in the presence or absence of 250 nM free calcium to allosterically activate GPDH (all in the presence of 4 μM rotenone, 2.5 uM antimycin A, 1 mM malonate, and 2 μM myxothiazol) • 7) ΔΨm: Vary the concentration of glycerol phosphate in the presence or absence of 250 nM free calcium to allosterically activate GPDH and in the presence or absence of 80 ng/mL nigericin (all in the presence of 4 μM rotenone)
The fluorescence values in each well were scaled in relation to the intra-plate DMSO and known inhibitor controls as in the high-throughput screen except that median values for local interspersed DMSO wells (3-6 wells) were used rather than just the 8 DMSO wells in columns 1 and 12. This normalization was applied in place of the two-way median polish used during high-throughput screening to minimize row and column effects. […] At this stage, strong candidates were not necessarily excluded from further testing if subtle off-target effects were observed (e.g. loss of specificity or signs of general inhibition at the highest concentrations). Rather, these candidates were often pursued for more detailed mechanistic studies with the expectation that subsequent structure activity analysis would provide insight into which structurally related compounds would provide the optimal specificity for a given site of production.
Candidate compounds that remained site-selective following robotics assisted retesting were subsequently tested for effects on ROS production and ΔΨm with a Varian Cary Eclipse fluorimeter (excitation 550 nm, emission at 590 nm). This experimental format allows kinetic measurements of ROS production and ΔΨm with more accurate temperature control, sample stirring, and background correction. […]

[5] = system: ubiquinone binding site of complex I (IQ); experiment: High-throughput screen: ROS production from ubiquinone binding site of complex I (IQ), isolated skeletal muscle mitochondria; type: biochemical, rat; conditions: percent change in ROS from DMSO controls
Method: as §3, §4, §5
To assess the effects of a compound on ROS production from the ubiquinone binding site of complex I (IQ), Start Solution containing 5 mM succinate was distributed into standard 96-well transfer plates. A Biomek FX workstation was programmed to dispense solutions into black 96-well assay plates. Solutions were dispensed to all assay plates in the following order: ROS Detection solution described in Example 3, Mitochondria solution described in Example 1 to a final concentration of 0.1 mg/ml, and Compound dilutions described in Example 2. Duplicate assay plates were made and each was initiated by the addition of 3.3X Start solution containing 5 mM succinate. Plates were incubated in the dark at room temperature for 30-40 minutes before acquiring endpoint fluorescence using a Victor 3V plate reader (Perkin Elmer) equipped with 550/590 nm excitation/emission filters.
The fluorescence values in each well were scaled as the percent change from the intra-plate DMSO controls with the appropriate inhibitor positive controls defined as −100%. Following initial scaling, intra-plate normalized values were subjected to Tukey's two-way median polish to remove row and column dependent positional effects (Malo et al, 2006).

[6] = system: mitochondrial membrane potential (ΔΨm); experiment: Membrane potential (ΔΨm) counterscreen with TMRM; conditions: malate, nigericin
[7] = molecular target: T4, flavin binding site of complex I (IF) (Rattus norvegicus, UniProt Q5XIH3); experiment: High-throughput screen: ROS production from flavin binding site of complex I (IF); type: biochemical
T4 construct: freshly isolated muscle mitochondria were assayed; from tissue; host or cells: rat skeletal muscle mitochondria (Wistar, Harlan Laboratories)

[8] = molecular target: T5, site IF (Rattus norvegicus, UniProt Q5XIH3); experiment: Retest of IF ROS production (expanded microplate panel); type: biochemical
T5 construct: freshly isolated muscle mitochondria were assayed; from tissue; host or cells: rat skeletal muscle mitochondria (Wistar, Harlan Laboratories)
Method: Compounds identified as site-selective hits as well as structural analogs were re-sourced from ChemBridge and dissolved in DMSO as 80 mM stocks. Master Titration Plates were prepared manually by serially diluting 80 mM compound stocks between 0.08 and 80 mM on 96-well microplates. Four compounds were titrated in duplicate on each plate. Additional DMSO controls were interspersed across these plates to serve as local normalization controls during analysis since two-way median polishing was not appropriate. Just prior to use, compounds were diluted 100-fold with standard buffer (10X). The same known inhibitor positive controls were included on each plate as during high-throughput screening. The five core ROS assays and single ΔΨm assay were carried out as in the initial high-throughput screen. In addition, several assays were included to help validate the specificity of the compounds for a given site of production. […] The use of different substrates was designed to reveal compounds that disrupt mitochondrial function in a substrate specific manner. […] Most frequently, these changes involved the use of different substrates to supply electrons from an alternative entry point in the chain. If a site of ROS production is being targeted selectively by a compound, then in many cases the supply of electrons should not influence the effectiveness of this compound at suppressing ROS production. […] The fluorescence values in each well were scaled in relation to the intra-plate DMSO and known inhibitor controls as in the high-throughput screen except that median values for local interspersed DMSO wells (3-6 wells) were used rather than just the 8 DMSO wells in columns 1 and 12. This normalization was applied in place of the two-way median polish used during high-throughput screening to minimize row and column effects. […] At this stage, strong candidates were not necessarily excluded from further testing if subtle off-target effects were observed (e.g. loss of specificity or signs of general inhibition at the highest concentrations). Rather, these candidates were often pursued for more detailed mechanistic studies with the expectation that subsequent structure activity analysis would provide insight into which structurally related compounds would provide the optimal specificity for a given site of production.

[9] = molecular target: T6, GPDH (Rattus norvegicus, UniProt P35571); experiment: Retest of GPDH ROS production (expanded microplate panel / cuvette); type: biochemical; conditions: microplate or cuvette
T6 construct: from tissue; host or cells: rat skeletal muscle mitochondria (Wistar, Harlan Laboratories)
T6 sequence (P35571 43-727): T2 sequence (P35571 43-727)
Method: as §1, §2
Most frequently, these changes involved the use of different substrates to supply electrons from an alternative entry point in the chain. If a site of ROS production is being targeted selectively by a compound, then in many cases the supply of electrons should not influence the effectiveness of this compound at suppressing ROS production. […]
The fluorescence values in each well were scaled in relation to the intra-plate DMSO and known inhibitor controls as in the high-throughput screen except that median values for local interspersed DMSO wells (3-6 wells) were used rather than just the 8 DMSO wells in columns 1 and 12. […]

[10] = system: complex I; experiment: Rate of NAD(P)H reduction via complex I versus observed ROS production; type: biochemical, rat
Method: To compare candidate IQ ROS inhibitors with mitochondrial inhibitors known to disrupt complex I activity (e.g. rotenone) or oxidize the electron transport chain (e.g. the uncoupler FCCP), the rate of NAD(P)H reduction via complex I was measured when isolated mitochondria were provided with saturating concentrations of the complex II substrate succinate (5 mM) and subsaturating levels of glutamate (1 mM) to facilitate full activation of complex II by oxaloacetate removal. […] These conditions allow electron and proton fluxes through complex Ito reverse and be directed predominantly toward the matrix. Addition of succinate causes a rapid increase in the reduction state of the matrix NAD(P)H pool that can be monitored as described above. The rate of NAD(P)H reduction is therefore a measure of electron flux through complex I for which direct comparisons can be made under identical conditions to effects on rates of ROS production.

[11] = Table 7, percent change in ROS from DMSO controls
[12] = Table 8, percent change in ROS from DMSO controls
[13] = Table 9, percent change in ROS from DMSO controls
[14] = Table 7, percent change in ROS from DMSO controls, read-out: IIIQO
[15] = percent change in ROS from DMSO controls
[16] = Table 9, percent change in ROS from DMSO controls, read-out: IIIQo
[17] = Table 3, 5 mM glutamate, 5 mM malate, 4 μM rotenone, compounds 2.5 μM, percent change from DMSO, positive control −100%, read-out: % Reduction in ROS production (IF)
[18] = Table 7, percent change in ROS from DMSO controls, read-out: IF

T1 sequence (Q920L2 35-656): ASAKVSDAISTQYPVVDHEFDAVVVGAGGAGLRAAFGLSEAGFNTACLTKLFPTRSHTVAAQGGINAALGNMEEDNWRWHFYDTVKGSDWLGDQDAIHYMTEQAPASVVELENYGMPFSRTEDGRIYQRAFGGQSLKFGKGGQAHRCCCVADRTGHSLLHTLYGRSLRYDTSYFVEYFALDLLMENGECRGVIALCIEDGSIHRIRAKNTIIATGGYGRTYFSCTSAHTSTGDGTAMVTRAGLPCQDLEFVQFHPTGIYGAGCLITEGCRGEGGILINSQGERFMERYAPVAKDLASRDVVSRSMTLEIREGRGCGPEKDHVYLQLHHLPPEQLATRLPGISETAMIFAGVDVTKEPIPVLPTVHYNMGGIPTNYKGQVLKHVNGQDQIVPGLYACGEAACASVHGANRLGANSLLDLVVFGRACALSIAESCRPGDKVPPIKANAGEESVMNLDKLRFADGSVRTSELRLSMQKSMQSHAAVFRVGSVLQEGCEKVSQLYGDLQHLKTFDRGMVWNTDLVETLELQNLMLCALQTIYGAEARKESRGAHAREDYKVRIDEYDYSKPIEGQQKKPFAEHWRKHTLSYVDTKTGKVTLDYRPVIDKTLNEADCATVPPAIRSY
T1 sequence (P21913 31-282): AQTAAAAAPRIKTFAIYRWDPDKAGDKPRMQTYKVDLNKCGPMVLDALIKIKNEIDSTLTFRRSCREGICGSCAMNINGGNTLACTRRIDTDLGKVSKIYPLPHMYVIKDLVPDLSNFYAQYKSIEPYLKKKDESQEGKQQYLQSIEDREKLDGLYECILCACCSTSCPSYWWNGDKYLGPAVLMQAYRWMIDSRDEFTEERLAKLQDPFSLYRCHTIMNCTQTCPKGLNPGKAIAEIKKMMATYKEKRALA
T1 sequence (Q641Z9 30-169 limits assumed): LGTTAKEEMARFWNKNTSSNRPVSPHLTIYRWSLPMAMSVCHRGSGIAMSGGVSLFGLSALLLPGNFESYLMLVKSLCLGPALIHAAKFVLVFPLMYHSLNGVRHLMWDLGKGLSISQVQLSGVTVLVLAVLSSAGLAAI
T1 sequence (Q6PCT8 57-159): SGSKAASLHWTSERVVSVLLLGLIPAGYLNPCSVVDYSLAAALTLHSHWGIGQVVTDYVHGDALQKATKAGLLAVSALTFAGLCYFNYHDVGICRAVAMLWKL
T4 sequence (Q5XIH3 21-464 limits assumed, one chain of several): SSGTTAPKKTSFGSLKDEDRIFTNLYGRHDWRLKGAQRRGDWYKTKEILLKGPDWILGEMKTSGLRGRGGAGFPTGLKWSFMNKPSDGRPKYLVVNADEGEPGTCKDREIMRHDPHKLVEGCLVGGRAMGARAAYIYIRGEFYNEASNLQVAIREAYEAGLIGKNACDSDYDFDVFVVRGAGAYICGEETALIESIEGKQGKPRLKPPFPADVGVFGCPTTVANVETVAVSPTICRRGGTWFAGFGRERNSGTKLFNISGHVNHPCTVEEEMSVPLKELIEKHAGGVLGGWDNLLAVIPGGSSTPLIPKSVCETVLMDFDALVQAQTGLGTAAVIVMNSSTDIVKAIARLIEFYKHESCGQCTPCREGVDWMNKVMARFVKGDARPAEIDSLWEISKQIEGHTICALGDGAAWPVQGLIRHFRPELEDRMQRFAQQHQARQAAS
T5 sequence (Q5XIH3 21-464 limits assumed): as the sequence (Q5XIH3 21-464 limits assumed, one chain of several) above

Structure (SMILES)	inhibition at 2.5 µM [1] [%]	SDH ([1]; Table 8)	SDH ([1]; Table 9)	inhibition [2, 11] [%]	GPDH [2, 12]	GPDH [2, 13]	inhibition at 2.5 µM [3, 14] [%]	IIIQO [3, 15]	inhibition at 2.5 µM [3, 16] [%]	IQ ([5]; Table 7)	IQ ([5]; Table 8)	IQ ([5]; Table 9)	ΔΨm ([6]; Table 8, glutamate)	ΔΨm ([6]; Table 9, glutamate)	inhibition at 2.5 µM [7, 17] [%]	inhibition at 2.5 µM [7, 18] [%]	IF [7, 12]	IF [7, 13]	also measured
CN(C)CCN(Cc1ccccc1)Cc1ccc(C(F)(F)F)cc1 [Compound 29]	0.1	−0.1	−0.1	2.4	−2.4	−2.4	3.2	−3.2	3.2	−2.1	−2.1	−2.1	−0.6	−0.6	18.1	18.1	−18.1	−18.1	effect on IQ ROS with subsaturating substrate [4]: strong effects on IQ ROS with subsaturating substrate; also recorded: stronger off-target effects on IQ ROS when driven by low concentration succinate
O=C(O)C1CCCCC1C(=O)NC1CCCCCCC1 (centres unmarked) [Compound 30]	-3.3	3.3	3.3	-0.7	0.7	0.7	-0.1	0.1	-0.1	−0.7	−0.7	−0.7	−1.0	−1.0	36.9	36.9	−36.9	−36.9	inhibition at 2.5 µM ([8]; 2.5 μM): 37%
CN(C)CCCN(CCCN(C)C)Cc1cccnc1 [Compound 33]				12.7	−12.7	−12.7	-6.1	6.1	-6.1	−0.5	−0.5	−0.5	0.4	0.4	3	3	−3.0	−3.0	effect on IF ROS and selectivity for site IF [8]: further improved selectivity for IF without compromising ΔΨm
O=C(O)CCC(=O)Nc1ccc(-c2nc3ccccc3o2)cc1 [Compound 50]	-2.1	2.1	2.1	12.2	−12.2	−12.2	-2.5	2.5	-2.5	0.8	0.8	0.8	0.8	0.8		2.6	−2.6	−2.6	inhibition at 2.5 µM ([2]; Table 6, 25 mM glycerol phosphate, rotenone, antimycin A, malonate, myxothiazol, compounds 2.5 μM, scaled to IQ positive controls, read-out: % Reduction in ROS Production (GPDH)): 12.2%; effect on GPDH ROS on retesting [9]: retested well as selective inhibitors of GPDH ROS
COc1ccc(/C=C2\C(=O)NC(=S)N(c3ccccc3)C2=O)cc1Br [Compound 52]	-4.6									−0.2						2.2			inhibition at 2.5 µM ([2]; Table 7, percent change in ROS from DMSO controls, read-out: GPDH): 0%; inhibition at 2.5 µM ([2]; read-out: % Reduction in ROS Production (GPDH)): 14.6%; inhibition at 2.5 µM ([3]; read-out: IIIQO): 0.4%; effect on GPDH ROS on retesting [9]: did not show any effect on GPDH when retested
N#CC(C#N)=NNc1ccc(OC(F)(F)F)cc1 [FCCP]																			effect on rates of NADH reduction and ROS production [10]: progressively inhibited both activities; also recorded: suppresses observed ROS to near zero
C=C(C)[C@H]1Cc2c(ccc3c2O[C@@H]2COc4cc(OC)c(OC)cc4[C@@H]2C3=O)O1 [rotenone]																			effect on rates of NADH reduction and ROS production ([10]; succinate with low glutamate, range of concentrations): progressively inhibited both activities; effect on rates of NADH reduction and ROS production ([10]; succinate with low glutamate, range of concentrations, listed as Rotenone): eliminates all IQ ROS production but not that from underlying IF and IIIQo
